Assay results published in ChEMBL document CHEMBL4732190, “Identification of Potent and Long-Acting Single-Chain Peptide Mimetics of Human Relaxin-2 for Cardiovascular Diseases” (J Med Chem, 2021).
In brackets after ≈: the same amount, converted by molar mass. *1 amine or outer side, *2 acyl side, *3 side chain or, on linkers, in order; H or OH if unused. Where a SMILES comes first, the peptide text is derived from it. [ ]: non-standard residue; d: D form. The star is where a group is joined. X5 = CCCCCCCCCCCCCCCCCCC(=O)[C@H](CCC(=O)O)NC(=O)[C@H](CCC(=O)O)NC(=O)[C@H](CCC(=O)O)NC(=O)[C@H](CCCCN)NC(=O)COCC(=O)NCCCOCCOCCOCCCNC(=O)COCC(=O)NCCCOCCOCCOCCCNC(=O)COCC(=O)NCCCOCCOCCOCCCN*; X6 = CCCCCCCCCCCCCCCCCCC(=O)[C@H](CCC(=O)O)N*; β2hAla(2S) = C[C@@H](CN[*:1])C(=O)[*:2]; X4 = CCCC[C@H](O[*:1])C(=O)[*:2]; hLys = NCCCCC[C@H](N)C(=O)O; Nle = CCCC[C@H](N)C(=O)O; Orn = NCCC[C@H](N)C(=O)O; AEEA = NCCOCCOCC(=O)O

Key:
[1] = Stability in human plasma assessed as parent compound remaining level at 5 uM remaining after 4 hrs; format: ADME, cell-free; details: read-out: Stabilty
[2] = Stability in rat plasma assessed as parent compound remaining level at 5 uM remaining after 4 hrs; format: ADME, cell-free; details: read-out: Stabilty
[3] = biological target: T1, Relaxin receptor 1 (Homo sapiens, UniProt Q9HBX9); assay: Agonist activity at RXFP1 endogenously expressed in human OVCAR-5 cells assessed as increase in IBMX-induced cAMP accumulation pretreated with IBMX for 40 mins followed by compound addition and measured after 30 mins by HTRF assay; format: functional, cell-based
T1 sequence (Q9HBX9 whole entry): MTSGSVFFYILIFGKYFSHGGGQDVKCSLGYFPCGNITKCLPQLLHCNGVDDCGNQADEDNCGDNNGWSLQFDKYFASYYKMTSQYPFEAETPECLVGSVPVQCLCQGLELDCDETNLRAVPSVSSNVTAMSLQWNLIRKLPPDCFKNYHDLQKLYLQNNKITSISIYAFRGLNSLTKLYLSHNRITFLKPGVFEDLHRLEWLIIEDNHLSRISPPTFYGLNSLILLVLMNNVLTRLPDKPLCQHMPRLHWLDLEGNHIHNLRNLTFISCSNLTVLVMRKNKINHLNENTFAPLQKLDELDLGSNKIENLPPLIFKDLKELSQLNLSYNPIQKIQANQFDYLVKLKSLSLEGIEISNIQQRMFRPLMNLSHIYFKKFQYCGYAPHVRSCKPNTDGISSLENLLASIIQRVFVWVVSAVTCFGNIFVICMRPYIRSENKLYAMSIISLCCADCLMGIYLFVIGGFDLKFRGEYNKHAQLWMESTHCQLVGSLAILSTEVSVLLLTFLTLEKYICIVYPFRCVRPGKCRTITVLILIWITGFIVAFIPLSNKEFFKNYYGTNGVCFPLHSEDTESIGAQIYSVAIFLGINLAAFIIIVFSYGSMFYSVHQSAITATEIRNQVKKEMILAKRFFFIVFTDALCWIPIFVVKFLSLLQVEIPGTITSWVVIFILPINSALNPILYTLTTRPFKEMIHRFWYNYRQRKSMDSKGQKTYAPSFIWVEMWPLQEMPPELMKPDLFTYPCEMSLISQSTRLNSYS

[4] = Aqueous solubility of compound in acetate buffer at pH 4.5 measured after 24 hrs by UPLC analysis; format: physicochemical
[5] = biological target: T2, Relaxin receptor 1 (Homo sapiens) (UniProt Q9HBX9); assay: Agonist activity at RXFP1 endogenously expressed in human OVCAR-5 cells assessed as increase in IBMX-induced cAMP accumulation pretreated with IBMX for 40 mins followed by compound addition and measured after 30 mins by HTRF assay relative to relaxin; format: functional, cell-based; details: filed as agonist
T2 sequence (whole entry): T1 sequence (Q9HBX9 whole entry)

[6] = Aqueous solubility of compound in phosphate buffer at pH 7.4 measured after 24 hrs by UPLC analysis; format: physicochemical
[7] = biological target: T2, Relaxin receptor 1 (Homo sapiens); assay: Selectivity ratio of EC50 for agonist activity at RXFP1 endogenously expressed in human OVCAR-5 cells in presence of 2 % HSA to EC50 for agonist activity at RXFP1 endogenously expressed in human OVCAR-5 cells in absence of HSA; format: cell-based
[8] = biological target: T1, Relaxin receptor 1; assay: Agonist activity at RXFP1 endogenously expressed in human OVCAR-5 cells assessed as increase in IBMX-induced cAMP accumulation pretreated with IBMX for 40 mins followed by compound addition and measured after 30 mins in presence of 2 % HSA by HTRF assay; format: functional, cell-based
[9] = biological target: T2, Relaxin receptor 1 (Homo sapiens); assay: Agonist activity at RXFP1 endogenously expressed in human OVCAR-5 cells assessed as increase in IBMX-induced cAMP accumulation pretreated with IBMX for 40 mins followed by compound addition and measured after 30 mins in presence of 2 % HSA by HTRF assay relative to control; format: functional, cell-based; details: filed as agonist
[10] = Half life in Sprague-Dawley rat at 1 mg/kg, iv measured upto 72 hrs by LC-HRMS analysis; format: ADME, organism-based; details: in vivo

Row | Compound | remaining at 4 h, 5 µM [1] | remaining at 4 h, 5 µM [2] | EC50 [3] | solubility at 24 h [4] | Emax [5] | solubility at 24 h [6] | Ratio EC50 [7] | EC50 [8] | Emax [9] | half-life [10]
1 | CC[C@H](C)[C@H](NC(=O)[C@H](CCC(N)=O)NC(=O)[C@H](C)NC(=O)[C@H](CCCNC(=N)N)NC(=O)[C@@H](NC(=O)[C@H](CCCCN)NC(=O)[C@H](CCC(=O)O)NC(=O)[C@H](CCCNC(=N)N)NC(=O)CNC(=O)[C@H](CCC(=O)O)NC(=O)[C@H](CC(C)C)NC(=O)[C@H](CCCCN)NC(=O)[C@@H](NC(=O)[C@@H](NC(C)=O)C(C)C)[C@@H](C)CC)C(C)C)C(=O)NC[C@H](C)C(=O)NC[C@H](C)C(=O)N[C@@H](CCC(=O)O)C(=O)NCC(=O)N[C@@H](CCSC)C(=O)N[C@@H](CO)C(=O)N[C@@H](CCCCN)C(=O)N[C@@H](Cc1c[nH]c2ccccc12)C(=O)N[C@@H](CO)C(=O)N[C@@H](CCCCN)C(=O)N[C@@H](CCCNC(=N)N)C(=O)N[C@@H](CCCCN)C(=O)N[C@@H](CCCCN)C(N)=O (HELM PEPTIDE1{[ac].V.I.K.L.E.G.R.E.K.V.R.A.Q.I.[C[C@@H](CN[*:1])C(=O)[*:2]].[C[C@@H](CN[*:1])C(=O)[*:2]].E.G.M.S.K.W.S.K.R.K.K.[am]}$$$$V2.0) | 58% | 37% | 17 nM | 5100 µg/mL (≈ 1600 µM) | 99% | 5300 µg/mL (≈ 1660 µM) | – | – | – | –
2 | CC[C@H](C)[C@H](NC(=O)[C@H](CCC(N)=O)NC(=O)[C@H](C)NC(=O)[C@H](CCCNC(=N)N)NC(=O)[C@@H](NC(=O)[C@H](CC(C)C)NC(=O)[C@H](CCC(=O)O)NC(=O)[C@H](CCCNC(=N)N)NC(=O)CNC(=O)[C@H](CO)NC(=O)[C@H](CC(C)C)NC(=O)[C@H](CCCCN)NC(=O)[C@@H](NC(=O)[C@@H](NC(C)=O)C(C)C)[C@@H](C)CC)C(C)C)C(=O)NC[C@H](C)C(=O)N[C@H](C(=O)N[C@@H](CO)C(=O)NCC(=O)N[C@@H](CCSC)C(=O)N[C@@H](CO)C(=O)N[C@H](C(=O)N[C@@H](Cc1c[nH]c2ccccc12)C(=O)N[C@@H](CO)C(=O)N[C@@H](CCCCN)C(=O)N[C@@H](CCCNC(=N)N)C(=O)N[C@@H](CCCCN)C(=O)N[C@@H](CCCCN)C(N)=O)[C@@H](C)O)[C@@H](C)CC (HELM PEPTIDE1{[ac].V.I.K.L.S.G.R.E.L.V.R.A.Q.I.[C[C@@H](CN[*:1])C(=O)[*:2]].I.S.G.M.S.T.W.S.K.R.K.K.[am]}$$$$V2.0) | 54% | 37% | 202 nM | 5700 µg/mL (≈ 1840 µM) | 90% | 4600 µg/mL (≈ 1480 µM) | – | – | – | –
3 | CCCC[C@H](OC(=O)CNC(=O)[C@H](CCC(=O)O)NC(=O)[C@@H](C)CNC(=O)[C@@H](C)CNC(=O)[C@@H](NC(=O)[C@H](CCCCCNC(C)=O)NC(=O)[C@@H](C)CNC(=O)[C@@H](C)CNC(=O)[C@H](CCCCN)NC(=O)[C@H](C)NC(=O)[C@H](CCCNC(=N)N)NC(=O)[C@@H](NC(=O)[C@H](CCCCN)NC(=O)[C@H](CCC(=O)O)NC(=O)[C@H](CCCNC(=N)N)NC(=O)CNC(=O)[C@H](CCC(=O)O)NC(=O)[C@H](CC(C)C)NC(C)=O)C(C)C)[C@@H](C)CC)C(=O)N[C@@H](CO)C(=O)N[C@H](C(=O)N[C@@H](Cc1c[nH]c2ccccc12)C(=O)N[C@@H](CO)C(=O)NC[C@H](C)C(=O)N[C@@H](CCCNC(=N)N)C(=O)N[C@@H](CCCCN)C(=O)N[C@@H](CCCN)C(=O)N[C@@H](CCCCCNC(C)=O)C(N)=O)[C@@H](C)O (Ac-LEGREKVRAK[β2hAla(2S)][β2hAla(2S)][hLys](Ac)I[β2hAla(2S)][β2hAla(2S)]EG[X4]STWS[β2hAla(2S)]RK[Orn][hLys](Ac)-NH2) | 74% | 60% | 18 nM | 4000 µg/mL (≈ 1210 µM) | 93% | 4000 µg/mL (≈ 1210 µM) | – | – | – | –
4 | CCCCCCCCCCCCCCCCCCC(=O)[C@H](CCC(=O)O)NC(=O)[C@H](CCC(=O)O)NC(=O)[C@H](CCC(=O)O)NC(=O)[C@H](CCCCN)NC(=O)COCC(=O)NCCCOCCOCCOCCCNC(=O)COCC(=O)NCCCOCCOCCOCCCNC(=O)COCC(=O)NCCCOCCOCCOCCCNC(=O)[C@H](CCCCCNC(C)=O)NC(=O)[C@H](CCCCN)NC(=O)[C@H](CCCCN)NC(=O)[C@H](CCCNC(=N)N)NC(=O)[C@@H](C)CNC(=O)[C@H](CO)NC(=O)[C@H](Cc1c[nH]c2ccccc12)NC(=O)[C@@H](NC(=O)[C@H](CO)NC(=O)[C@H](CCCCCNC(C)=O)NC(=O)[C@H](CCCCN)NC(=O)[C@H](CCCC)NC(=O)[C@H](CCSC)NC(=O)CNC(=O)[C@H](CCC(=O)O)NC(=O)[C@@H](C)CNC(=O)[C@@H](C)CNC(=O)[C@@H](NC(=O)[C@H](CCCCCNC(C)=O)NC(=O)[C@H](CCCCN)NC(=O)[C@H](C)NC(=O)[C@H](CCCNC(=N)N)NC(=O)[C@@H](NC(=O)[C@H](CCCCN)NC(=O)[C@H](CCC(=O)O)NC(=O)[C@H](CCCNC(=N)N)NC(=O)[C@H](CCC(=O)O)NC(=O)CNC(=O)[C@H](CCC(=O)O)NC(=O)[C@H](CC(C)C)NC(C)=O)C(C)C)[C@@H](C)CC)[C@@H](C)O (Ac-LEGEREKVRAK[hLys](Ac)I[β2hAla(2S)][β2hAla(2S)]EGM[Nle]K[hLys](Ac)STWS[β2hAla(2S)]RKK[hLys](Ac)-X5) | – | – | 0.4 nM | – | 88% | – | 61 | 24.5 nM | 85% | 3.96 h
5 | CC[C@H](C)[C@H](NC[C@@H](C)CNC(=O)[C@@H](NC(=O)[C@H](CCC(N)=O)NC(=O)[C@H](C)NC(=O)[C@H](CCCNC(=N)N)NC(=O)[C@@H](NC(=O)[C@H](CCCCN)NC(=O)[C@H](CCC(=O)O)NC(=O)[C@H](CCCNC(=N)N)NC(=O)CNC(=O)[C@H](CCC(=O)O)NC(=O)[C@H](CC(C)C)NC(=O)[C@H](CCCCN)NC(=O)[C@@H](NC(=O)[C@@H](NC(C)=O)C(C)C)[C@@H](C)CC)C(C)C)[C@@H](C)CC)C(=O)N[C@@H](CCC(=O)O)C(=O)NCC(=O)N[C@@H](CCSC)C(=O)N[C@@H](CO)C(=O)N[C@@H](CCCCN)C(=O)N[C@@H](Cc1c[nH]c2ccccc12)C(=O)N[C@@H](CO)C(=O)N[C@@H](CCCCN)C(=O)N[C@@H](CCCNC(=N)N)C(=O)N[C@@H](CCCCN)C(=O)N[C@@H](CCCCN)C(N)=O | 79% | 29% | 54 nM | 4800 µg/mL (≈ 1490 µM) | 95% | 3800 µg/mL (≈ 1180 µM) | – | – | – | –
6 | CCCCCCCCCCCCCCCCCCC(=O)[C@H](CCC(=O)O)NC(=O)[C@H](CCC(=O)O)NC(=O)[C@H](CCC(=O)O)NC(=O)[C@H](CCCCN)NC(=O)COCCOCCNC(=O)COCCOCCNC(=O)COCCOCCNC(=O)[C@H](CCCCCNC(C)=O)NC(=O)[C@H](CCCCN)NC(=O)[C@H](CCCCN)NC(=O)[C@H](CCCNC(=N)N)NC(=O)[C@@H](C)CNC(=O)[C@H](CO)NC(=O)[C@H](Cc1c[nH]c2ccccc12)NC(=O)[C@@H](NC(=O)[C@H](CO)NC(=O)[C@H](CCCCCNC(C)=O)NC(=O)[C@H](CCCCN)NC(=O)[C@H](CCCC)NC(=O)[C@H](CCSC)NC(=O)CNC(=O)[C@H](CCC(=O)O)NC(=O)[C@@H](C)CNC(=O)[C@@H](C)CNC(=O)[C@@H](NC(=O)[C@H](CCCCCNC(C)=O)NC(=O)[C@H](CCCCN)NC(=O)[C@H](C)NC(=O)[C@H](CCCNC(=N)N)NC(=O)[C@@H](NC(=O)[C@H](CCCCN)NC(=O)[C@H](CCC(=O)O)NC(=O)[C@H](CCCNC(=N)N)NC(=O)[C@H](CCC(=O)O)NC(=O)CNC(=O)[C@H](CCC(=O)O)NC(=O)[C@H](CC(C)C)NC(C)=O)C(C)C)[C@@H](C)CC)[C@@H](C)O (Ac-LEGEREKVRAK[hLys](Ac)I[β2hAla(2S)][β2hAla(2S)]EGM[Nle]K[hLys](Ac)STWS[β2hAla(2S)]RKK[hLys](Ac)[AEEA][AEEA][AEEA]KEE-X6) | – | – | 0.1 nM | – | 88% | – | 198 | 19.8 nM | 82% | 3.4 h
